Experimental data taken from patent US9426996B2, “Use of benzoxaboroles as volatile antimicrobial agents on meats, plants, or plant parts” (AgroFresh Inc., priority 2013, dated 2016).

Key:
Botrytis cinerea [1] = assay: in vitro inhibition assay for volatile antimicrobial compounds (12-well PDA plates); assay type: cell-based; conditions: in vitro; volatile; 14 days at 4° C.
Experimental: 12-Well (7 milliliter (mL volume per well) microtiter plates are used for the in vitro inhibition assay for volatile antimicrobial compounds. A 3-mL volume of full-strength Potato Dextrose Agar (PDA) is added to each well. After cooling, 1 microliter (μL) of 1×10^6 per mL Botrytis cinerea spore suspension is spot pipetted to the center of the agar. For the first experiment, inoculated plates are allowed to germinate for 5 days at 4° C. For the second experiment, plates are inoculated immediately prior to volatile fungicide treatment. Small Whatman #1 filter disks (Cat. No. 1001-0155) are placed, in duplicate, on the underside of a polyethylene PCR plate sealing film.
The acetone is permitted to evaporate for 5 minutes. The headspace around the Botrytis cinerea inoculum is then sealed inside the well by the film with the adhering disk containing the fungicide. Plates are inverted, placed over the treated disks and sealed to prevent any of the chemical from flaking from the disk and falling onto the inoculated agar. After 14 days of storage at 4° C., cultures are evaluated for percent growth relative to control. Regardless of whether the spores had germinated for 5 days, or if the treatment commenced soon after inoculation of the plates (˜15 minutes); there is 100% control of the fungal pathogen down to 0.005 mg.
A total of 14 antimicrobial compounds are tested using the in vitro inhibition assay described in Example 1. All 14 compounds are applied to the Whatman disks, in duplicate, in a dose dependent manner (0.31 to 0.0006 mg/disk). […] Other compounds, such as Compound C, Compound D, and Compound E conferred 100% control down to 0.023, 0.04, and 0.08 mg/disk, respectively. Results of nine compounds are summarized in Table 2, where the other five compounds show no detected activity in the ranges tested. […]

Botrytis cinerea [2] = assay: in vivo volatile bioassay using strawberry
Experimental: In order to assess the in vivo activity of volatile antimicrobial compounds, a volatile bioassay is developed using strawberry. Two fruit are placed inside a 240 mL jar, with the calyx facing downwards. […] The acetone is permitted to evaporate for 5 minutes. The jars are then capped with the lids containing the fungicide, and placed for 5 days at 21° C. After storage, fruit are evaluated for incidence and severity of disease and appearance of phytotoxicity.

Penicillium digitatum [3] = assay: in vivo volatile bioassay using orange (Compound B, sublimation); conditions: for Sporulation (mm) / Water soaked lesions (mm): oranges
Experimental: Two oranges per replicate are placed inside a clamshell. Three fresh wounds per orange are inoculated with 30 μL of 1×10^6 per mL Penicillium digitatum spore suspension. The clamshells are placed inside a 10.8-cup SnapWare airtight container (Model #109842). […] After storage, fruits are evaluated for disease incidence (mm diameter of the rot) and pathogen sporulation (mm diameter) on the surface of the fruits for an additional three days at 21° C., with results summarized in Table 20.

Botrytis cinerea [4] = assay: in vivo sublimation bioassay on fruit, 1 mg/L (Example 31); conditions: for Incidence (%) / Severity (0-4): 1 mg/L sublimed, three day treatment plus three days at 21° C.
Experimental: (§1) To assess the in vivo activity of volatile antimicrobial Compounds A and B (FIG. 1) in fruit, a volatile bioassay is developed using apple, pear, orange, strawberry, grape and blueberry.
(§2) Two apples, 2 oranges, 2 pears, 8 strawberries, 16 grapes or 30 blueberries (per replicate, in duplicate) are placed in a clamshell with the stem end facing up for all fruits except for strawberry (stem end facing downwards). A fresh wound is inoculated with 20 μL 1×10^6 per mL Penicillium expansum spore suspension (apple and pear), 20 μL 1×10^6 per mL Penicillium digitatum spore suspension (orange), and 20 μL (strawberry and grape) or 10 μL (blueberry) of 1×10^6 per mL Botrytis cinerea spore suspension. The clamshells are placed inside a 117 L Rubbermaid storage box (Cat #2244) with lids closed. […] After treatment, fruits are held for an additional three days at 21° C., then evaluated for disease incidence (mm diameter of browning or water-soaked lesions) and pathogen sporulation (mm diameter) for apple, pear and orange, as well as Botrytis cinerea disease incidence (%) and severity (0 to 4) for strawberry, grape and blueberry, with results summarized in Table 30.

Penicillium digitatum [5] = assay: as above
Experimental: as §1, §2

Penicillium expansum = assay: as above; conditions: 1 mg/L sublimed, three day treatment plus three days at 21° C.
Experimental: as §1, §2

Botrytis cinerea [6] = assay: combination treatment with 1-MCP on white roses; assay type: in vivo; conditions: 1-MCP 500 ppb v/v for 24 hours, no Compound A
Experimental: To evaluate a combination treatment of Compound A with 1-methylcyclopropene (1-MCP), an in vivo experiment is performed on white roses.
Five white roses are placed in an 800 mL jar containing 200 mL of a common commercial flower preservative. Three jars are then placed in a 117 L Rubbermaid storage box (Cat #2244). Two small fans are placed in opposite ends of the container to assist with the distribution of the two volatiles. A 500 parts per billion (ppb) volume per volume (v/v) 1-MCP treatment is applied (AgroFresh, Springhouse, Pa.) for 24 hours at 21° C. After the 1-MCP treatment is completed, the containers are vented, and Compound A powder is applied in a dose dependent manner to achieve a final headspace concentration of 0.2, 0.04, or 0.008 mg/L with a sublimation device (copper tube heated to 200° C. with fan flow at 0.5 L/min), with the end of the tube penetrating through a ½ inch side port in the container that is sealed immediately after the application. The flowers are incubated for three days at 21° C. After treatment, the flowers are evaluated for an additional seven days at 21° C. for disease incidence and severity of the flower petals.

Alternaria alternata [7] = assay: combination treatment with 1-MCP on broccoli; assay type: in vivo; parameters: scale not given here; conditions: 1-MCP alone, 21° C.
Experimental: To evaluate a combination treatment of Compound A with 1-methylcyclopropene (1-MCP), an in vivo experiment is performed on broccoli.
Broccoli flowers are inoculated with 1×10^6 spores/mL of Alternaria alternata and then placed in a 117 L Rubbermaid storage box (Cat #2244) with two small fans placed in opposite ends of the container. A 500 ppb v/v 1-MCP treatment is applied (AgroFresh, Springhouse, Pa.) for 24 hours at 1° C. After completion of the 1-MCP treatment, broccoli florets are removed and placed in a 10.8-cup SnapWare airtight container (Model #109842). Compound A powder is applied in a dose dependent manner to achieve a final headspace concentration of 2 or 0.4 mg/L with a sublimation device (copper tube heated to 200° C. with fan flow at 0.5 L/min), with the end of the tube penetrating through a ½ inch side port in the container that is sealed immediately after the application. The florets are incubated for five days at 10° C. or three days at 21° C., then evaluated for an additional five days at 21° C. for disease incidence and severity.

Alternaria alternata [8] = assay: combination treatment with 1-MCP on tomato; assay type: in vivo; conditions: tomatoes; 1-MCP 1000 ppb v/v alone
Experimental: Each tomato fruit is wounded three times and inoculated with 1×10^6 spores/mL of Alternaria alternata and then placed in a 117 L Rubbermaid storage box (Cat #2244) with two small fans placed in opposite ends of the container. A 1000 ppb v/v 1-MCP treatment is applied (AgroFresh, Springhouse, Pa.) for 24 hours at 21° C. After completion of the 1-MCP treatment, the tomatoes are removed and placed in a 10.8-cup […] airtight container (Model #109842). […] The tomatoes are incubated for three days at 21° C., then evaluated for an additional three days at 21° C. for disease incidence and severity. Results listed in Table 29 show good activity against Alternaria alternata infection of tomato.

Alternaria alternata [9] = assay: combination treatment with 1-MCP on broccoli; assay type: in vivo; parameters: scale not given here; conditions: 1-MCP alone, 11 C.
[10] = Orange, 1 mg/L sublimed, three day treatment plus three days at 21° C.

With OB1OCc2ccccc21 [Compound B, 2-(hydroxymethyl)phenylboronic acid cyclic monoester] the “lowest rate with 100% control of Botrytis cinerea” value (Botrytis cinerea [1]) was 0.0078 mg/disk, the “Percent (%) Incidence of Botrytis cinerea on Strawberry (in vivo)” value (“Percent (%) Incidence” for short) (Botrytis cinerea [2]; 0.005 mg/disk, 5 days at 21° C.) was 100% and the “Percent (%) Incidence” value (Botrytis cinerea [2]; 0.01 mg/disk, 5 days at 21° C.) was 100%. The “Percent (%) Incidence” value (Botrytis cinerea [2]; 0.02 mg/disk, 5 days at 21° C.) was 100%, the “Percent (%) Incidence” value (Botrytis cinerea [2]; 0.04 mg/disk, 5 days at 21° C.) was 75% and the “Percent (%) Incidence” value (Botrytis cinerea [2]; 0.08 mg/disk, 5 days at 21° C.) was 50%. For the same compound, the “Percent (%) Incidence” value (Botrytis cinerea [2]; 0.16 mg/disk, 5 days at 21° C.) was 25%, the “Percent (%) Incidence” value (Botrytis cinerea [2]; 0.32 mg/disk, 5 days at 21° C.) was 0% and the “Percent (%) Incidence” value (Botrytis cinerea [2]; 0.64 mg/disk, 5 days at 21° C.) was 0%. For the same compound, the “Percent (%) Incidence” value (Botrytis cinerea [2]; 1.25 mg/disk, 5 days at 21° C.) was 0%, the “Percent (%) Incidence” value (Botrytis cinerea [2]; 2.5 mg/disk, 5 days at 21° C.) was 0% and the “lowest rate with 100% control of Botrytis cinerea” value (Botrytis cinerea [2]; strawberry, 5 days at 21° C.) was 0.32 mg/disk. For the same compound, the appearance of phytotoxicity (Botrytis cinerea [2]; strawberry, any of the rates evaluated (2.5 to 0.005 mg/disk)) was “no evidence of phytotoxicity”, the “in vivo volatile inhibition of P. digitatum in orange” value (Penicillium digitatum [3]; 10 mg/L) was “complete inhibition” and the “Sporulation (mm)” value (Penicillium digitatum [3]; 0.4 mg/L, Day 0) was 0.7 mm. For the same compound, the “Water soaked lesions (mm)” value (Penicillium digitatum [3]; 0.4 mg/L, Day 0) was 5.7 mm, the “Sporulation (mm)” value (Penicillium digitatum [3]; 0.4 mg/L, Day 1) was 1.4 mm and the “Water soaked lesions (mm)” value (Penicillium digitatum [3]; 0.4 mg/L, Day 1) was 29.4 mm. For the same compound, the “Sporulation (mm)” value (Penicillium digitatum [3]; 0.4 mg/L, Day 2) was 8.1 mm, the “Water soaked lesions (mm)” value (Penicillium digitatum [3]; 0.4 mg/L, Day 2) was 49.3 mm and the “Sporulation (mm)” value (Penicillium digitatum [3]; 0.4 mg/L, Day 3) was 27.2 mm. The “Water soaked lesions (mm)” value (Penicillium digitatum [3]; 0.4 mg/L, Day 3) was 63.4 mm, the “Sporulation (mm)” value (Penicillium digitatum [3]; 2 mg/L, Day 0) was 0 mm and the “Water soaked lesions (mm)” value (Penicillium digitatum [3]; 2 mg/L, Day 0) was 0.5 mm. The “Sporulation (mm)” value (Penicillium digitatum [3]; 2 mg/L, Day 1) was 0.3 mm, the “Water soaked lesions (mm)” value (Penicillium digitatum [3]; 2 mg/L, Day 1) was 7.8 mm and the “Sporulation (mm)” value (Penicillium digitatum [3]; 2 mg/L, Day 2) was 2.8 mm. For the same compound, the “Water soaked lesions (mm)” value (Penicillium digitatum [3]; 2 mg/L, Day 2) was 30.7 mm, the “Sporulation (mm)” value (Penicillium digitatum [3]; 2 mg/L, Day 3) was 5.7 mm and the “Water soaked lesions (mm)” value (Penicillium digitatum [3]; 2 mg/L, Day 3) was 42.6 mm. The “Sporulation (mm)” value (Penicillium digitatum [3]; 10 mg/L, Day 0) was 0 mm, the “Water soaked lesions (mm)” value (Penicillium digitatum [3]; 10 mg/L, Day 0) was 0 mm and the “Sporulation (mm)” value (Penicillium digitatum [3]; 10 mg/L, Day 1) was 0 mm. The “Water soaked lesions (mm)” value (Penicillium digitatum [3]; 10 mg/L, Day 1) was 0 mm, the “Sporulation (mm)” value (Penicillium digitatum [3]; 10 mg/L, Day 2) was 0 mm and the “Water soaked lesions (mm)” value (Penicillium digitatum [3]; 10 mg/L, Day 2) was 0 mm. For the same compound, the “Sporulation (mm)” value (Penicillium digitatum [3]; 10 mg/L, Day 3) was 0 mm, the “Water soaked lesions (mm)” value (Penicillium digitatum [3]; 10 mg/L, Day 3) was 0.8 mm and the “Sporulation (mm)” value (Penicillium digitatum [3]; 50 mg/L, Day 0) was 0 mm. The “Water soaked lesions (mm)” value (Penicillium digitatum [3]; 50 mg/L, Day 0) was 0 mm, the “Sporulation (mm)” value (Penicillium digitatum [3]; 50 mg/L, Day 1) was 0 mm and the “Water soaked lesions (mm)” value (Penicillium digitatum [3]; 50 mg/L, Day 1) was 0 mm. For the same compound, the “Sporulation (mm)” value (Penicillium digitatum [3]; 50 mg/L, Day 2) was 0 mm, the “Water soaked lesions (mm)” value (Penicillium digitatum [3]; 50 mg/L, Day 2) was 0 mm and the “Sporulation (mm)” value (Penicillium digitatum [3]; 50 mg/L, Day 3) was 0 mm. For the same compound, the “Water soaked lesions (mm)” value (Penicillium digitatum [3]; 50 mg/L, Day 3) was 0 mm, the “in vivo antimicrobial control of B. cinerea” value (Botrytis cinerea [4]; 1 mg/L, volatile fungicide on different hosts) was 100% and the “Incidence (%)” value (Botrytis cinerea [4]; Blueberry) was 0.0%. For the same compound, the “Severity (0-4)” value (Botrytis cinerea [4]; Blueberry) was 0.0, the “Incidence (%)” value (Botrytis cinerea [4]; Grape) was 0.0% and the “Severity (0-4)” value (Botrytis cinerea [4]; Grape) was 0.0. For the same compound, the “Incidence (%)” value (Botrytis cinerea [4]; Strawberry) was 0.0%, the “Severity (0-4)” value (Botrytis cinerea [4]; Strawberry) was 0.0 and the “in vivo antimicrobial control of P. digitatum” value (Penicillium digitatum [5]; 1 mg/L, volatile fungicide) was 100%. For the same compound, the “Sporulation (mm)” value (Penicillium digitatum [5]; [10]) was 0.0 mm, the Water soaked lesion (Penicillium digitatum [5]; [10]) was 0.0 mm and the “Browning (mm)” value (Penicillium expansum; Apple) was 2.3 mm. The “Sporulation (mm)” value (Penicillium expansum; Apple) was 0.2 mm, the “Browning (mm)” value (Penicillium expansum; Pear) was 1.1 mm and the “Sporulation (mm)” value (Penicillium expansum; Pear) was 0.0 mm.
With CC1=CC1 [Compound 1-MCP, 1-methylcyclopropene, reference compound] the “Incidence (%)” value (Botrytis cinerea [6]) was 33.3%, the “Severity (0-4)” value (Botrytis cinerea [6]) was 0.4 and the “Color Score” value (Alternaria alternata [7]) was 1.79. The Severity (Alternaria alternata [7]) was 0.61, the “Diameter of the rot (mm)” value (Alternaria alternata [8]) was 13.6 mm and the “Color Score” value (Alternaria alternata [9]) was 1.50. The Severity (Alternaria alternata [9]) was 0.18.
